{"source": "patent US8961959B2", "about": "“Glucosylceramide synthase inhibitors and therapeutic methods using the same” (The Regents of the University of Michigan, priority 2011, dated 2015)", "key": {"[1]": {"settings": "drug distribution studies; cited from earlier work"}, "[2]": {"tested_on": "Sandhoff (Hexb−/−) mice", "experiment": "Juvenile Sandhoff (Hexb−/−) mice treated with compound 3h", "type": "in vivo, mouse", "settings": "for Neutral Lipids GA2: p-15 Sandhoff mice; for Total Siatic Acid: Hexb −/− p-15, 60 mg/kg/day i.p. p-9 to p-15, resorcinol assay", "procedure": "The SV/129 Hexb−/− mice were obtained from the NIH. The mice were derived by the disruption of the murine Hexb gene and transferring this gene into the mouse genome via homologous recombination and embryonic stem cell technology as previously described (38). The genotypes of mice were determined by PCR as previously described. Mice were propagated and housed in plastic cages with filter tops containing Sani-Chip bedding (P.J. Murphy Forest Products Corp.; Montville, N.J.). Food and water were provided ad libitum. Nursing females were provided with cotton nesting pads for the duration of the experiment.\nThe solution was dried under nitrogen, resuspended in 3.6 ml distilled H2O, then dissolved at 42° C. in a shaking water bath. The solution was neutralized by adding 400 μl of 10× phosphate buffer saline (PBS), and was sterilized following passage through an Acrodisc 0.2 μm syringe filter (Sigma, St. Louis, Mo.). […] The mice were weighed daily and received intraperitoneal (i.p.) injections equivalent to 60 mg/kg from postnatal day 9 (p-9) to postnatal day 15 (p-15). Control mice received i.p. injections of PBS. Injections were performed using a Hamilton syringe (26 gauge, point style 2, 0.5 inch needle) (Hamilton, Reno, Nev.), and volumes ranged from 50 ul to 100 μl/mouse. The mice were sacrificed 4 hrs after the final injection on p-15. Cerebrum, cerebellum, and liver were dissected and frozen on dry ice to determine wet weight. The tissues then were homogenized in 3.0 ml distilled H2O, and 150 μl of each homogenate was set aside for analysis of protein and lysosomal enzyme activities. The remaining homogenate was frozen at −80° C., lyophilized, then weighed before lipid extraction. […]\nLipid extraction of lyophilized tissue was performed overnight in 5 ml CHCl3:CH3OH 1:1 (v/v). Samples were spun down at 2500 rpm for 20 min, and the supernatant was collected. Pellets were washed in 2 ml CHCl3:CH3OH 1:1 (v/v), spun down again, and the total 7 ml of supernatant was brought up to a final volume of 19.6 ml at a ratio of 30:60:8 CHCl3:CH3OH:dH2O (v/v/v).\nNeutral lipids and cholesterol were separated from acidic lipids and gangliosides by ion exchange chromatography as we described (32, 28, 24). The total lipid extract, suspended in CHCl3:CH3OH:dH2O, 30:60:8 by volume (solvent A), was applied to a DEAE Sephadex column (1.2 mL bed volume) that had been equilibrated prior with solvent A (28). The column was washed twice with 20 mL solvent A and the entire neutral lipid fraction, consisting of the initial eluent plus washes, was collected. This fraction contained cholesterol, phosphatidylcholine, phosphatidylethanolamine and plasmalogens, sphingomyelin, and neutral GSLs to include cerebrosides and asialo-GM2 (GA2). Next, acidic lipids were eluted from the column with 35 mL CHCl3:CH3OH:0.8 M Na acetate, 30:60:8 by volume. Gangliosides were separated from acidic phospholipids by Folch partitioning, base treated, and desalted as previously described (32, 28). Neutral lipids were dried by rotary evaporation and resuspended in 10 mL CHCl3:CH3OH (2:1; v/v). A 4 mL aliquot was evaporated under nitrogen, base treated with 1 N NaOH, and Folch partitioned. The Folch lower phase containing GA2 was evaporated under nitrogen and resuspended in 4 mL CHCl3:CH3OH (2:1; v/v).\nTotal ganglioside content was quantified before and after desalting using the resorcinol assay as previously described (28). Sialic acid values were fit to a standard curve using n-acetylneuraminic acid as a standard.\nAll lipids were analyzed qualitatively by high-performance thin-layer chromatography (HPTLC) according to previously described methods (28, 24, 25). Lipids were spotted on 10 cm×20 cm Silica gel 60 HPTLC plates (E. Merck, Darmstadt, Germany) using a Camag Linomat III auto-TLC spotter (Camag Scientific, Inc., Wilmington, N.C.). […]"}, "[3]": {"settings": "Hexb −/− mice p-15, 60 mg/kg/day i.p. p-9 to p-15, mean ± SEM"}, "[4]": {"settings": "cerebellum, Hexb −/− p-15, 60 mg/kg/day"}, "[5]": {"settings": "cerebrum, Hexb −/− p-15, 60 mg/kg/day"}, "[6]": {"settings": "liver, Hexb −/− p-15, 60 mg/kg/day"}}, "data": [{"smiles": "CCCCCCCC(=O)N[C@H](CN1CCCC1)[C@H](O)c1ccc2c(c1)OCCO2", "note": "[Compound 3a, N-((1R,2R)-1-(2,3-dihydrobenzo-[b][1,4]dioxin-6-yl)-1-hydroxy-3-(pyrrolidin-1-yl)propan-2-yl)octanamide, reference compound]", "values": [{"measurement": "transport across the blood brain barrier", "setting": "[1]", "result": "not transported across the blood brain barrier"}]}, {"smiles": "O=C(CC1Cc2ccccc2C1)N[C@H](CN1CCCC1)[C@H](O)c1ccc2c(c1)OCCO2", "note": "[Compound 3h, 2-(2,3-dihydro-1H-inden-2-yl)-N-((1R,2R)-1-(2,3-dihydrobenzo[b][1,4]dioxin-6-yl)-1-hydroxy-3-(pyrrolidin-1-yl)propan-2-yl)acetamide]", "values": [{"measurement": "adverse effects on body weight over the treatment period", "setting": "[2]; 60 mg/kg/day p-9 to p-15", "result": "no adverse effects"}, {"measurement": "Neutral Lipids GA2", "setting": "[2]; Cerebellum", "result": "0.55 ± 0.01", "unit": "mg/100 mg dry weight"}, {"measurement": "Neutral Lipids GA2", "setting": "[2]; Cerebrum", "result": "0.51 ± 0.01", "unit": "mg/100 mg dry weight"}, {"measurement": "Body Weight", "setting": "[2]; Hexb −/− mice p-15, 60 mg/kg/day i.p. p-9 to p-15 (oxalate), mean ± SEM", "result": "9.0 ± 0.5", "unit": "g"}, {"measurement": "Water Content Cerebellum", "setting": "[2]; [3]", "result": "83.88 ± 0.01", "unit": "%"}, {"measurement": "Water Content Cerebrum", "setting": "[2]; [3]", "result": "84.45 ± 0.01", "unit": "%"}, {"measurement": "Wet Weight Cerebellum", "setting": "[2]; [3]", "result": "87.7 ± 7.7", "unit": "mg"}, {"measurement": "Wet Weight Cerebrum", "setting": "[2]; [3]", "result": "271.0 ± 2.3", "unit": "mg"}, {"measurement": "Neutral Lipids GA2", "setting": "[2]; Liver", "result": "1.10 ± 0.05", "unit": "mg/100 mg dry weight"}, {"measurement": "reduction of GM2 content", "setting": "[2]; cerebellum of Hexb −/− mice", "result": 53, "unit": "%"}, {"measurement": "total sialic content lower than in control Hexb −/− mice", "setting": "[2]; cerebellum, 60 mg/kg/day p-9 to p-15", "result": 14, "unit": "%"}, {"measurement": "G1a Concentration", "setting": "[2]; [4]", "result": "76.6 ± 3.7 micrograms of sialic acid per 100 mg dry weight"}, {"measurement": "G1a Percent", "setting": "[2]; [4]", "result": "24.1 ± 0.3", "unit": "%"}, {"measurement": "GD1b Concentration", "setting": "[2]; [4]", "result": "42.1 ± 2.0 micrograms of sialic acid per 100 mg dry weight"}, {"measurement": "GD1b Percent", "setting": "[2]; [4]", "result": "24.1 ± 0.3", "unit": "%"}, {"measurement": "GD3 Concentration", "setting": "[2]; [4]", "result": "9.8 ± 1.2 micrograms of sialic acid per 100 mg dry weight"}, {"measurement": "GD3 Percent", "setting": "[2]; [4]", "result": "4.3 ± 0.2", "unit": "%"}, {"measurement": "GM1 Concentration", "setting": "[2]; [4]", "result": "17.4 ± 1.4 micrograms of sialic acid per 100 mg dry weight"}, {"measurement": "GM1 Percent", "setting": "[2]; [4]", "result": "5.5 ± 0.4", "unit": "%"}, {"measurement": "GM2 Concentration", "setting": "[2]; [4]", "result": "9.8 ± 1.2 micrograms of sialic acid per 100 mg dry weight"}, {"measurement": "GM2 Percent", "setting": "[2]; [4]", "result": "3.1 ± 0.1", "unit": "%"}, {"measurement": "GQ1b Concentration", "setting": "[2]; [4]", "result": "41.3 ± 3.8 micrograms of sialic acid per 100 mg dry weight"}, {"measurement": "GQ1b Percent", "setting": "[2]; [4]", "result": "12.9 ± 0.1", "unit": "%"}, {"measurement": "GT1a/LD1 Concentration", "setting": "[2]; [4]", "result": "22.9 ± 1.0 micrograms of sialic acid per 100 mg dry weight"}, {"measurement": "GT1a/LD1 Percent", "setting": "[2]; [4]", "result": "7.2 ± 0.1", "unit": "%"}, {"measurement": "GT1b Concentration", "setting": "[2]; [4]", "result": "94.4 ± 3.9 micrograms of sialic acid per 100 mg dry weight"}, {"measurement": "GT1b Percent", "setting": "[2]; [4]", "result": "29.7 ± 0.8", "unit": "%"}, {"measurement": "Total Siatic Acid", "setting": "[2]; cerebellum, mean ± SEM", "result": "318 ± 15"}, {"measurement": "reduction of GM2 content", "setting": "[2]; cerebrum of Hexb −/− mice", "result": 52, "unit": "%"}, {"measurement": "total sialic content lower than in control Hexb −/− mice", "setting": "[2]; cerebrum, 60 mg/kg/day p-9 to p-15", "result": 11, "unit": "%"}, {"measurement": "G1a Concentration", "setting": "[2]; [5]", "result": "187.4 ± 5.2 micrograms of sialic acid per 100 mg dry weight"}, {"measurement": "G1a Percent", "setting": "[2]; [5]", "result": "43.4 ± 0.3", "unit": "%"}, {"measurement": "GD1b Concentration", "setting": "[2]; [5]", "result": "31.7 ± 0.5 micrograms of sialic acid per 100 mg dry weight"}, {"measurement": "GD1b Percent", "setting": "[2]; [5]", "result": "7.3 ± 0.1", "unit": "%"}, {"measurement": "GM1 Concentration", "setting": "[2]; [5]", "result": "26.4 ± 1.6 micrograms of sialic acid per 100 mg dry weight"}, {"measurement": "GM1 Percent", "setting": "[2]; [5]", "result": "6.1 ± 0.2", "unit": "%"}, {"measurement": "GM2 Concentration", "setting": "[2]; [5]", "result": "87.7 ± 7.7 micrograms of sialic acid per 100 mg dry weight"}, {"measurement": "GM2 Percent", "setting": "[2]; [5]", "result": "2.8 ± 0.1", "unit": "%"}, {"measurement": "GQ1b Concentration", "setting": "[2]; [5]", "result": "33.3 ± 0.7 micrograms of sialic acid per 100 mg dry weight"}, {"measurement": "GQ1b Percent", "setting": "[2]; [5]", "result": "7.7 ± 0.1", "unit": "%"}, {"measurement": "GT1a/LD1 Concentration", "setting": "[2]; [5]", "result": "20.8 ± 0.7 micrograms of sialic acid per 100 mg dry weight"}, {"measurement": "GT1a/LD1 Percent", "setting": "[2]; [5]", "result": "4.8 ± 0.3", "unit": "%"}, {"measurement": "GT1b Concentration", "setting": "[2]; [5]", "result": "119.8 ± 3.3 micrograms of sialic acid per 100 mg dry weight"}, {"measurement": "GT1b Percent", "setting": "[2]; [5]", "result": "27.8 ± 0.1", "unit": "%"}, {"measurement": "Total Siatic Acid", "setting": "[2]; cerebrum, mean ± SEM", "result": "432 ± 11"}, {"measurement": "body weight versus control Hexb −/− mice", "setting": "[2]; in words", "result": "slightly higher"}, {"measurement": "reduction of NGNA-GM2 content", "setting": "[2]; liver, versus PBS-treated Hexb −/− controls", "result": 45, "unit": "%"}, {"measurement": "total sialic content lower than in control Hexb −/− mice", "setting": "[2]; liver, 60 mg/kg/day p-9 to p-15", "result": 38, "unit": "%"}, {"measurement": "G1a Concentration", "setting": "[2]; [6]", "result": "12.2 ± 0.3 micrograms of sialic acid per 100 mg dry weight"}, {"measurement": "G1a Percent", "setting": "[2]; [6]", "result": "17.6 ± 1.1", "unit": "%"}, {"measurement": "GM1 Concentration", "setting": "[2]; [6]", "result": "15.4 ± 2.1 micrograms of sialic acid per 100 mg dry weight"}, {"measurement": "GM1 Percent", "setting": "[2]; [6]", "result": "21.9 ± 1.5", "unit": "%"}, {"measurement": "GM2 Concentration", "setting": "[2]; [6]", "result": "42.1 ± 2.6 micrograms of sialic acid per 100 mg dry weight"}, {"measurement": "GM2 Percent", "setting": "[2]; [6]", "result": "60.5 ± 1.3", "unit": "%"}, {"measurement": "Total Siatic Acid", "setting": "[2]; liver, mean ± SEM", "result": "70 ± 5"}, {"measurement": "reduction of GA2 in Hexb −/− liver", "setting": "[2]; p=0.06", "result": "not significant"}]}]}
